The source of these data is US20250326723A1, “Development of an Enzyme-Inhibitor Reaction Using Cellular Retinoic Acid Binding Protein II for One-Pot Megamolecule Assembly” (NORTHWESTERN UNIVERSITY, priority 2021, published 2025).

The test system of data set [1] is fusion protein containing SnapTag and cutinase domains (CS). Description: Cross-reactivity of SnapTag and cutinase protein domains with the fluorescent CrabTag inhibitor, SDS-PAGE. The data set is classed as biochemical. Particulars: CS 10 μM, linker 1 equiv., 25° C. in PBS; CrabTag protein added next day. The source says:
FIG. 18A illustrates orthogonality of enzyme-inhibitor pairs in the megamolecule assembly toolbox. A Coomassie stain with brightfield view of SDS-PAGE. Lane 1: CRABP2 (R) protein domain (MW, −16 kDa). Lane 2: Reaction of CRABP2 with fluorescent linker 11. Lane 3: Cutinase-SnapTag (CS) fusion protein (MW, −45 kDa). Lane 4: CS with the CrabTag fluorescent inhibitor. Lane 5: CS with the di-cutinase PEG11 linker to yield a di-CS megamolecule (MW, −90 kDa). Lane 6: CS with the di-SnapTag PEG11 linker to yield a di-CS megamolecule (MW, −90 kDa). Lanes 7-8: CS was first mixed with the CrabTag fluorescent inhibitor for two hours. Afterwards, the di-cutinase PEG11 or the di-SnapTag PEG11 linker was added, forming the di-CS megamolecule (MW, −90 kDa). The next day, the R protein was added to form the fluorescent band shown in the fluorescent SDS-PAGE. Lanes 9-10: R was first mixed with either the di-cutinase PEG11 or the di-SnapTag PEG11 linker for two hours, followed by the addition of the CS fusion protein to form the di-CS megamolecule (MW, −90 kDa). The following day, the fluorescent CrabTag linker was added to form the fluorescent band shown in the fluorescent SDS-PAGE. […]
The orthogonality of the CrabTag enzyme-inhibitor system was examined against our existing two chemistries, cutinase and SnapTag. […] All reactions were imaged by SDS-PAGE using both fluorescence and Coomassie stain.

Data set [2] addresses T1, CrabTag protein domain (CRABP2) (Homo sapiens, UniProt P29373).
T1 construct: made in house; host or cells: E. coli T7 SHuffle Express
T1 sequence (P29373 with tags, fused parts or gaps): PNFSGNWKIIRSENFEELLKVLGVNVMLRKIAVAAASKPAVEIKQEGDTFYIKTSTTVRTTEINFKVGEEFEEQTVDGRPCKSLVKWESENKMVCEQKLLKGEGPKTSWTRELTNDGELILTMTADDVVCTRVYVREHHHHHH
Description: Stability of the covalent CrabTag-linker adduct over two weeks, fluorescent SDS-PAGE. The format is physicochemical.

Another data set deals with T2, CrabTag (CRABP2) (Homo sapiens, UniProt P29373).
T2 construct: made in house; host or cells: E. coli T7 SHuffle Express
T2 sequence (P29373 2-138): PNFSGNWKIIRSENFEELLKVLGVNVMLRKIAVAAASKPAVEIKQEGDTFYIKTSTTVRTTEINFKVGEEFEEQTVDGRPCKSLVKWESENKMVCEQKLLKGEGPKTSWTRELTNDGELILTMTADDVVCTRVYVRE
Description: Intact protein ESI-MS of CrabTag-inhibitor complexes. The data set is classed as binding. The conditions noted are these: CrabTag 1 μM, inhibitor 5 μM, 5 minutes. The method, then: FIG. 3 illustrates ESI-MS deconvoluted spectra with expected and observed molecular weights for CrabTag with a N-terminal Histag. Top: Purified CrabTag protein with the N-terminal histag and TEV protease recognition sequence (R, Black). Bottom: Adduct from reaction of R (0.1 nmol, 1 μM) with an inhibitor of the disclosure having a structure according to Formula 10 (5 eq., 5 μM) (Red). The reaction occurred in 100 μL of 1×PBS for 5 minutes before being stopped by addition of formic acid in preparation for ESI-MS.
FIG. 4 illustrates intact protein ESI-MS for CrabTag-inhibitor complexes. Reactions of C-terminal Histag R (1 μM, 1 equivalent) with either an inhibitor of the disclosure having a structure according to Formula 10 (5 μM, 5 equivalents) or an inhibitor of the disclosure having a structure according to Formula 11 (5 μM, 5 equivalents) occurred for 5 minutes before being stopped with formic acid.
Megamolecules were prepared for LC-MS analysis and evaluation using ESI-MS. Reaction time points were taken by quenching the sample with 0.1% formic acid. The preparation involved the desalting and dilution of the multi-protein assembly to 1 μM in nuclease free water. […] Spectra data were analyzed with Agilent MassHunter Qualitative Analysis software to reveal m/z data. […]

Data set [3] addresses T1, CrabTag protein domain (CRABP2). Description: Quantification of reaction kinetics for CRABP2 (CrabTag) covalent modification, fluorescent SDS-PAGE. The format is biochemical. On the procedure:
The present disclosure provides a method for synthesizing linker 11, which includes a fluorophore to characterize the kinetics for reaction of the covalent inhibitor and CrabTag, as shown in FIG. 10A. The inventors have run parallel reactions that varies the concentration of the linker (2, 5, 10, 20, 40, 65, and 100 μM) at a constant concentration of CrabTag (1 μM) and stops the reactions using Laemmli reducing buffer at times ranging from 0 to 120 seconds, as shown in FIG. 10B. […] The inventors have separated the reaction products with SDS-PAGE and quantitated the mean fluorescence intensity of protein bands that corresponded to the adduct with ImageJ. […]
The inventors synthesized linker 11, which included a fluorophore to characterize the kinetics for reaction of the covalent inhibitor and CrabTag as shown in FIG. 10A The inventors ran parallel reactions that varied the concentration of the linker (2, 5, 10, 20, 40, 65, and 100 μM) at a constant concentration of CrabTag (1 μM) and stopped the reactions using Laemmli reducing buffer at times ranging from 0 to 120 seconds as shown in FIG. 10B. […] The inventors separated the reaction products with SDS-PAGE and quantitated the mean fluorescence intensity of protein bands that corresponded to the adduct with ImageJ. […]

Another data set concerns the target T3, CRABP2 (Homo sapiens, UniProt P29373).
T3 construct: His6 (N); made in house; host or cells: E. coli T7 SHuffle Express
T3 sequence (P29373 with tags, fused parts or gaps): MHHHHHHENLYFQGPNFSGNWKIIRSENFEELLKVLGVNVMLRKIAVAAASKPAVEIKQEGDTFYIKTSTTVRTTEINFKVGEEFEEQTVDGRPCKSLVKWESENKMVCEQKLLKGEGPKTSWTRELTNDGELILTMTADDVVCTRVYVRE
Description: X-ray crystal structure of the CRABP2-10 covalent complex. The data set is classed as binding. The conditions noted are these: 1.8 Å structure. The method, then:
CRABP2 protein (1000 nmol, 100 μM) was reacted with inhibitor 10 (500 μM, 5 equivalents) in PBS for about 1-50 hours, about 6-20 hours, about 10-18 hours, about 12-16 hours, or about 16 hours. The protein-inhibitor adduct was then purified using SEC and the fractions containing the adduct were pooled, dialyzed, and concentrated to 12 mg/mL (1.275 mL total) using a Centrifugal Filter Unit. […]
Data Processing, Structure Determination and Model Refinement. […] Diffraction data were measured at the Life Sciences Collaborative Access beamlines at Sector 21 of the Advanced Photon Source at Argonne National Laboratory, indexed, integrated and scaled with HKL2000.^4 All subsequent work was conducted using the CCP4 suite of programs.^5 The space group and unit cell parameters were confirmed with Pointless.^6 The structure was determined by molecular replacement with PhaserMR, using a single monomer of Human Cellular Retinoic Acid Binding Protein II (CRABPII) (PDB: 6HKR) with ligands and water molecules removed as the initial phasing model. […]

On to `CC1(C)CCN(C(=O)CCC(=O)NCCOCCOCCOCCOCCOCCOCCOCCOCCOCCOCCOCCNC(=O)CCCCCNC(=O)c2ccc3c(c2)C(=O)OC32c3ccc(O)cc3Oc3cc(O)ccc32)c2ccc(C#Cc3ccc(OS(=O)(=O)F)cc3)cc21` [linker 11, Bi-EG(11)-(CrabTag Ligand, Fluorescein)], for which, in data set [1], the “reactivity of the CrabTag linker after incubation with CS fusion protein” value is “maintained selective reactivity with the CrabTag enzyme”. Besides, the “protein domains retaining covalent occupancy of the linker (normalized covalent occupancy)” value in data set [2] (1 μM in PBS, 25° C. (room temperature), after two weeks) was “over 95%”. Also, the “adduct stoichiometry by intact mass spectrometry” value at CrabTag (CRABP2) is reported as “monomeric adducts with only one modification”. The “second order rate constant for the covalent modification reaction, keff” value in data set [3] (CrabTag 1 μM, linker 2-100 μM, times 0 to 120 seconds, ratio of ki and KI) is “(3.6±0.5)×10^3 M^−1s^−1”.
Regarding `CC1(C)CCN(C(=O)CCC(=O)O)c2ccc(C#Cc3ccc(OS(=O)(=O)F)cc3)cc21` [inhibitor 10, 4-(6-((4-((fluorosulfonyl)oxy)phenyl)ethynyl)-4,4-dimethyl-3,4-dihydroquinolin-1(2H)-yl)-4-oxobutanoic acid], the “enzyme-inhibitor complex stable (bound)” value in data set [2] (room temperature, over two weeks) is listed as above 95%. Also, at CrabTag (CRABP2), the “adduct stoichiometry by intact mass spectrometry” value is “monomeric adducts with only one modification”. Also, the “effective rate constant of the inhibition reaction” value in data set [3] (CrabTag inhibition reaction) is on record as “approximately 3,600 M^−1s^−1”. On CRABP2, the “residue covalently modified in crystal structure” value was “selectively modifies Tyr135”.
